The values that follow come from US20160090364A1, “PHTHALAZINONES AND ISOQUINOLINONES AS ROCK INHIBITORS” (BRISTOL-MYERS SQUIBB COMPANY, priority 2013, published 2016).

Usually IC50 stands for the concentration that inhibits the measured activity by half. Low readings indicate greater potency, high ones weaker potency.

SMILES strings stand for the structures. Some results are limits rather than exact numbers.

One test has as its target ROCK1 (Homo sapiens, UniProt Q13464). Nature of the test: ROCK assay (Caliper LabChip peptide phosphorylation), ROCK1. The class given is biochemical. As to conditions: 5 μM ATP, 1.5 μM peptide substrate. The procedure:
The effectiveness of compounds of the present invention as ROCK inhibitors can be determined in a 30 μL assay containing 20 mM HEPES, pH 7.5, 20 mM MgCl2, 0.015% Brij-35, 4 mM DTT, 5 μM ATP and 1.5 μM peptide substrate (FITC-AHA-[…]-OH). Compounds were dissolved in DMSO so that the final concentration of DMSO was <2%, and the reaction was initiated with Rho kinase variants. After incubation, the reaction was terminated by the addition of EDTA and the phosphorylated and non-phosphorylated peptides separated using a LabChip 3000 Reader (Caliper Life Sciences). […] Compounds were tested in dose-response format, and the inhibition of kinase activity was calculated at each concentration of compound. The inhibition data were fit using a curve-fitting program to determine the IC50; i.e., the concentration of compound required to inhibit 50% of kinase activity.”
Representative Examples were tested in the ROCK assay described above and found having ROCK inhibitory activity. A range of ROCK inhibitory activity (IC50 values) of ≦50 μM (50000 nM) was observed. Table A below lists the ROCK IC50 values measured for the following examples.

Test [1] concerns neointimal formation in rats. As to conditions: model similar to balloon injury; cited from earlier work.
In test [2] the test system is IL-1 beta-induced coronary stenosis. As to conditions: porcine, long term treatment; cited from earlier work.

Sequence of ROCK1 (Q13464 whole entry, species assumed): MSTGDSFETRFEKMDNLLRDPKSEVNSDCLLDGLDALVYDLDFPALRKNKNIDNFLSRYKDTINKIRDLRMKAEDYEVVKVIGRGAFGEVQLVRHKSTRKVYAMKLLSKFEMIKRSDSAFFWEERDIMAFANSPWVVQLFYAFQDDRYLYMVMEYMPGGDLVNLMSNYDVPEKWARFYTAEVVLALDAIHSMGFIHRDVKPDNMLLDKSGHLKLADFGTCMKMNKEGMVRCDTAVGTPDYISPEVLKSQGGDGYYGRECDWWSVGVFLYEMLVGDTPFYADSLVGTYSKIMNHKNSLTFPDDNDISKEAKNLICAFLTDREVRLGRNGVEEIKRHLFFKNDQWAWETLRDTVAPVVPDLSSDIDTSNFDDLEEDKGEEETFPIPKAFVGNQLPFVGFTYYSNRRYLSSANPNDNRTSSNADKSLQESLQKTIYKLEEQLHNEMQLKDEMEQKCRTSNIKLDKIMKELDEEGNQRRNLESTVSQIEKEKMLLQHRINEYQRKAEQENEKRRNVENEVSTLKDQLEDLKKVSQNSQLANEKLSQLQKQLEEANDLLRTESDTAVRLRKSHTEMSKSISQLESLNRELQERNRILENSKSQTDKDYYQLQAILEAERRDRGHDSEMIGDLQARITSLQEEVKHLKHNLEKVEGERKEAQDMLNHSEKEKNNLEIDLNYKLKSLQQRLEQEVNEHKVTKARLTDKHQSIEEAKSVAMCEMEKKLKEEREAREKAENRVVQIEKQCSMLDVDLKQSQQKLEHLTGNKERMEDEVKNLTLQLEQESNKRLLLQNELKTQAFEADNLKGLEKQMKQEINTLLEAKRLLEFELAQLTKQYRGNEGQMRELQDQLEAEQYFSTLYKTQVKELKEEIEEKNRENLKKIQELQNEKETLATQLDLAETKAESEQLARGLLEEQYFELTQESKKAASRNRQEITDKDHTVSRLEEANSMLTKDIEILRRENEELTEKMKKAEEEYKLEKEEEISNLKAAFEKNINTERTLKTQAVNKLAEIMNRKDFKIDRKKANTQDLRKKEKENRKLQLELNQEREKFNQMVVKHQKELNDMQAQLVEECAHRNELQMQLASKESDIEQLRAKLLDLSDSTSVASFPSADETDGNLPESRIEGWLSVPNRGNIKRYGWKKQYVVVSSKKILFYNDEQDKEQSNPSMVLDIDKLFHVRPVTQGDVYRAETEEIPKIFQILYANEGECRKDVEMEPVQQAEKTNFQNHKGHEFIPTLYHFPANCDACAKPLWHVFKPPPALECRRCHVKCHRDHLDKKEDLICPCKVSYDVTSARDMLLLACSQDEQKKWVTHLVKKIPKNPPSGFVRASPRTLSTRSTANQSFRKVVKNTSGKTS

As to `O=C(Oc1ccc(-c2n[nH]c(=O)c3ccccc23)cc1)N1CCC(c2ccccc2)C1` (stereo not shown) [Example 69, 4-(4-oxo-3,4-dihydrophthalazin-1-yl)phenyl 3-phenylpyrrolidine-1-carboxylate], the IC50 at ROCK1 was at least 50 µM.

Turning to `C[C@@H](N)[C@H]1CC[C@H](C(=O)Nc2ccncc2)CC1` [Example Y-27632, Y-27632], the neointimal formation result in test [1] was “inhibited neointimal formation”.

For the compound `O=S(=O)(c1cccc2cnccc12)N1CCCNCC1` [fasudil], in test [2], the coronary constrictive remodeling result is listed as “promote a regression of coronary constrictive remodeling” and the coronary stenosis result is given as “progressively reduce coronary stenosis”.
